Earlier results as cited in US20110257145A1, “METHOD OF TREATING NEUROLOGICAL DISEASES” (THE BOARD OF TRUSTEES OF THE UNIVERSITY OF ILLINOIS, priority 2008, published 2011).

Legend:
[1] = test system: AD double-transgenic mouse; conditions: in vivo; cited from earlier work
mouse PKCα = mouse PKCα (Mus musculus, UniProt P20444); conditions: PKC binding, value marked [52]; read-out: K1[nm] ± SEM; cited from earlier work
[2] = test system: fibroblasts from AD patients; conditions: sub-nanomolar concentrations; cited from earlier work

**Q.** Which behavioral outcome [1] does the source give for `CCC/C=C/C=C/C(=O)O[C@H]1/C(=C/C(=O)OC)C[C@H]2C[C@H]([C@@H](C)O)OC(=O)C[C@H](O)C[C@@H]3C[C@H](OC(C)=O)C(C)(C)[C@](O)(C[C@@H]4C/C(=C/C(=O)OC)C[C@H](/C=C/C(C)(C)[C@]1(O)O2)O4)O3` [Bryostatin 1] here?
**A.** improved

**Q.** And the “brain Aβ40” value [1]?
**A.** decreased

**Q.** And the “brain Aβ42” value [1]?
**A.** decreased

**Q.** And the “rate of premature death” value [1]?
**A.** ameliorated

**Q.** What about the Ki (mouse PKCα) of the same compound?
**A.** 1.4 nM

**Q.** What about the “secretion of the α-secretase product sAPPα” value [2] of the same compound?
**A.** dramatically enhances
